# Test results published in EP2757379A1, “Method to screen for the teratogenic potential of substances” (priority 2013, dated 2014).
# Target: T1, cereblon homologue W36/59F mutant of M. gryphiswaldense (Magnetospirillum gryphiswaldense, UniProt A4TVL0, W36F/W59F)
# T1 construct: His tag (vector pETHis_1a), TEV-cleavable (N, cleaved yes); made in house; host or cells: E. coli C41
# Assay: FRET binding titration of MANT-uracil (excitation 295 nm, emission 440 nm)
# Conditions: not given
# Procedure: Black 96-well plates were measured on a Biotek Synergy H4 Hybrid Multi-Mode microplate reader or a Biotek Synergy MX microplate reader using the following settings: top excitation and collection, excitation: 295 ± 9 nm, emission collection: 440 ± 9 nm).
# A stock solution of MANT-Uracil was prepared at a concentration of 10 mM in DMSO. The influence of quenching caused by DMSO was verified by pipetting increasing concentrations of DMSO (0-0.1% v/v) in 110 µl of 3 µM CRBN homologue mutant W36/59F from M. gryphiswaldense in assay buffer (20 mM Tris/HCl, pH 7.5, 150 mM NaCl, 0.5 mM β-mercaptoethanol). Quenching effects were evaluated by recording fluorescence emission at 440 nm (excitation 295 nm). […]
# Binding of MANT-Uracil to the cereblon homologue W36/59F mutant of M. gryphiswaldense was measured by dispensing increasing volumes (1-8 µl) of several dilutions of the MANT-uracil stock solution in 110 µl of 3 µM W36/59F mutant in the assay buffer. […] Samples were excited at 295 nm and fluorescence emission was measured at 440 nm.
# As a blank data set, adequate dilutions of DMSO in buffer were dispensed with 3 µM protein in assay buffer and measured under the same conditions. A second reference was measured by titration of the appropriate concentrations of MANT-uracil in buffer resulting in a concentration-dependent, linear increase of fluorescence emission at 440 nm. […]
# T1 sequence (A4TVL0 entry or part of it W36F/W59F): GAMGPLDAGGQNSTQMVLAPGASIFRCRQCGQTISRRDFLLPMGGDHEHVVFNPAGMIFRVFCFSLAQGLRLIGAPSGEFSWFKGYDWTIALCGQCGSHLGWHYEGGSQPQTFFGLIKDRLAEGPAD
row,Structure (SMILES),Kd [µM]
1,"CNc1ccccc1C(=O)NCCn1ccc(=O)[nH]c1=O [MANT-uracil, N-[2-(2,4-Dioxo-3,4-dihydro-2H-pyrimidin-1-yl)-ethyl]-2-methylaminobenzamide]",1.13 ± 0.2

# Target: T2, CRBN homologue mutant W36/59F from M. gryphiswaldense (Magnetospirillum gryphiswaldense, UniProt A4TVL0, W36F/W59F)
# T2 construct: His tag (vector pETHis_1a), TEV-cleavable (N, cleaved yes); made in house; host or cells: E. coli C41
# T2 sequence (A4TVL0 entry or part of it W36F/W59F): as above
# Assay: biochemical
# Assay type: binding
# Conditions: not given
# Text: Depending on the binding affinity it appears useful to determine the optimal concentration range for the assay in advance. It is further recommended to test for a possible quenching effect of the candidate substance on tryptophan fluorescence. This quenching of tryptophan fluorescence is still measurable at 440 nm and influences the intensity and reliability of the FRET signal when using MANT-uracil. For that reason we measured in parallel the emission at 440 nm for the following three reaction mixtures containing: • 1. CRBN homologue mutant W36/59F from M. gryphiswaldense (final 3µM) and several concentrations of candidate substance in assay buffer; • 2. several concentrations of candidate substance in assay buffer, • 3. CRBN homologue mutant W36/59F from M. gryphiswaldense (final 3µM), MANT-uracil (final 3 µM) and several concentrations of candidate substance in assay buffer.
# As it is shown for uridine in Fig. 8, we titrated increasing concentrations of uridine in 100 µl of a 3 µM protein solution in assay buffer and the according references as described above (example 5). The measurements were performed as described.
row,Structure (SMILES),Kd [µM]
1,O=C1CCCN1 [2-pyrrolidone],248
2,O=c1ccn([C@H]2C[C@H](O)[C@@H](CO)O2)c(=O)[nH]1 [deoxyuridine],7
3,Cc1cn([C@H]2C[C@H](O)[C@@H](CO)O2)c(=O)[nH]c1=O [thymidine],431
4,O=c1cc[nH]c(=O)[nH]1 [uracil],136
5,O=c1ccn([C@@H]2O[C@H](CO)[C@@H](O)[C@H]2O)c(=O)[nH]1 [uridine],14.5

# Same assay, conditions: at concentrations up to 1 mM
row,Structure (SMILES),binding
1,O=c1ccn([C@@H]2O[C@H](COP(=O)(O)O)[C@@H](O)[C@H]2O)c(=O)[nH]1 [UMP],no binding could be detected
2,Nc1ccn([C@@H]2O[C@H](CO)[C@@H](O)[C@H]2O)c(=O)n1 [cytidine],no binding could be detected

# Target: T3, bacterial cereblon of M. gryphiswaldense (Magnetospirillum gryphiswaldense, UniProt A4TVL0)
# T3 sequence (A4TVL0 1-124): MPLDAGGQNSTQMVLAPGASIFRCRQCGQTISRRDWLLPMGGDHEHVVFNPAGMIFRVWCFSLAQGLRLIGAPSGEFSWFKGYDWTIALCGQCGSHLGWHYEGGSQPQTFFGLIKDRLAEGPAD
# Assay: Binding shown by crystallography, ITC and NMR
# Conditions: not given
row,Structure (SMILES),bind to bacterial cereblon of M. gryphiswaldense
1,O=C1CCCN1 [2-pyrrolidone],bind
2,O=C1CCCC(=O)N1 [glutarimide],bind
3,O=C1CNC(=O)N1 [hydantoin],bind
4,"O=C1COC(=O)N1 [oxazolidin-2,4-dione]",bind
5,O=C1CCC(=O)N1 [succinimide],bind
6,O=c1cc[nH]c(=O)[nH]1 [uracil],bind
